Measured values: paper PMC8113213, “Physiologically based kinetic modelling based prediction of in vivo rat and human acetylcholinesterase (AChE) inhibition upon exposure to diazinon” (Archives of Toxicology, 2021)
pIC50: −log10 of the molar value. Read-outs that look alike come from different tables or passages of the source.

Legend:
[1] = rat; ref Poet et al. 2004; cited from earlier work
[2] = human; ref Garfitt et al. 2002; Poet et al. 2004; cited from earlier work
rat RBC AChE = biological target: T1, rat RBC AChE (Rattus norvegicus, UniProt P37136); test: In vitro AChE inhibition assay (Ellman) with extracted rat RBC AChE; assay type: biochemical; conditions: rat; IC50 DZO/IC50 DZN, TEF of DZO set at 1.0
T1 construct: the membrane fraction (containing AChE) was sedimented by centrifugation at 20,000g for 40 min; tissue BioIVT; host or cells: rat red blood cell membranes (from whole blood)
T1 sequence (P37136 other isoform, or with tags, fused parts or gaps): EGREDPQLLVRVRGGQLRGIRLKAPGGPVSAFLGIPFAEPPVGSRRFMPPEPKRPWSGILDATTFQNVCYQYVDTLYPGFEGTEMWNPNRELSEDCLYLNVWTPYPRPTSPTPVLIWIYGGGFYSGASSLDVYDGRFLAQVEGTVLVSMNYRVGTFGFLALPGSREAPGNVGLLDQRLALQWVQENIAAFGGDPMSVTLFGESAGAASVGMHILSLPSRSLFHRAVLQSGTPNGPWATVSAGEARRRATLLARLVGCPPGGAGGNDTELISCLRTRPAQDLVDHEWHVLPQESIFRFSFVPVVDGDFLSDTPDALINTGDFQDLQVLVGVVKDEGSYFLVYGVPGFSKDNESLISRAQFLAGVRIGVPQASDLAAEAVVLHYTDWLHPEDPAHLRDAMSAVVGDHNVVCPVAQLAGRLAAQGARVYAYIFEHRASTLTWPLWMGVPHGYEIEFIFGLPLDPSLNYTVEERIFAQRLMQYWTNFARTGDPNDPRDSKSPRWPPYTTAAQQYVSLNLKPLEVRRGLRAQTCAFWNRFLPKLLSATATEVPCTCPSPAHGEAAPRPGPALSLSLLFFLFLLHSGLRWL
Experimental: (§1) However, since recombinant rat AChE was not commercially available, extracted rat RBC AChE was used. […] The concentration of DTNB was calculated based on the concentration ratio (ATC/DTNB) of 2 (Stern et al. [2014]). […] To initiate the inhibition reaction, 1 µl rhAChE or rat AChE (final concentration 0.6 mU/ml) was added to the incubation. The total incubation volume was 50 µl. After 15 min incubation at 37℃, 150 µl reaction reagents (mixture of ATC at a final concentration of 150 µM and DTNB at a final concentration of 75 µM) were added into each well. The final total volume of each well was 200 µl. Subsequently, the 96-well plate was measured continuously for 10 min at absorbance 412 nm at 37℃ to quantify the remaining AChE activity.
(§2) The rhAChE and rat AChE activity were expressed as the remaining AChE activity relative to solvent control (100% activity) and positive control (0% activity) based on Eq. (2):2 AChEactivity\%=A412t10-t0testcompound-A412t10-t0positivecontrol/A412t10-t0solventcontrol-A412t10-t0positivecontrol×100\% , where the A412(t10 − t0)test compound is the change in the absorbance at A412 nm between 0 and 10 min for the test compound, the A412(t10 − t0)positive control is the change in the absorbance at A412 nm between 0 and 10 min for the CPO sample, and the A412(t10 − t0)solvent control is the change in the absorbance at A412nm between 0 and 10 min for the 0.2% ethanol sample.

[3] = biological target: T2, recombinant human AChE (rhAChE) (Homo sapiens, UniProt P22303); test: biochemical
T2 construct: purchased Sigma-Aldrich Co
T2 sequence (P22303 32-614): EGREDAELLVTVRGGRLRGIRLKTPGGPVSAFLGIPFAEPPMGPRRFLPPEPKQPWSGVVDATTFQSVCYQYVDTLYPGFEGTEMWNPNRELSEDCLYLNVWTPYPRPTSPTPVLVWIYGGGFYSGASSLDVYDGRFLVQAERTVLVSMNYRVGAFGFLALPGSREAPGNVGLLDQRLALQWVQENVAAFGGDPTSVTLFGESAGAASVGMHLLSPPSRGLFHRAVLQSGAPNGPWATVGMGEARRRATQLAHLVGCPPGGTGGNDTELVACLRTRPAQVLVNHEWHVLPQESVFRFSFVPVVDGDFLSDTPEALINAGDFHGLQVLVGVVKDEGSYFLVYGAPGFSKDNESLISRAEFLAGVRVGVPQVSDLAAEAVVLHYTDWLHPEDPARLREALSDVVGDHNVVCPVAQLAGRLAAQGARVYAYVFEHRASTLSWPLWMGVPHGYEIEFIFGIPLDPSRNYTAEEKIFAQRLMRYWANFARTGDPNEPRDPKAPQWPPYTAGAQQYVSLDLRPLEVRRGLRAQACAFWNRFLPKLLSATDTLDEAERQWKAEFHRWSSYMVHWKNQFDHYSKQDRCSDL
Experimental: as §1, §2

PON1 [4] = biological target: T3, PON1 (Homo sapiens, UniProt P27169); test: in vitro; assay type: in vitro ADME; conditions: for Km: pH 7.4
T3 construct: 1 µl of human or rat liver microsomes (final concentration 0.1 mg microsomal protein/ml); tissue Corning; host or cells: human liver microsomes, pooled from 20 donors
T3 sequence (P27169 whole entry): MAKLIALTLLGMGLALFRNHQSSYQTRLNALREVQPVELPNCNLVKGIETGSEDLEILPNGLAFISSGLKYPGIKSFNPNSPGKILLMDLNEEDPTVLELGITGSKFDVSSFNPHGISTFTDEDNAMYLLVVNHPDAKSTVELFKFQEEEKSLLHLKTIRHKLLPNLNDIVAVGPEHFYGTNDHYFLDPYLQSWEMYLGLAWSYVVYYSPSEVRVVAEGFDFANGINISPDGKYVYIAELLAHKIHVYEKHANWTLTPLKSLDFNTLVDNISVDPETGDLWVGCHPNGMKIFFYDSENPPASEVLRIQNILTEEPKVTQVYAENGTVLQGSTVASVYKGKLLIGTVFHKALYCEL
Experimental: (§3) Preliminary studies were carried to optimize and select the incubation conditions with respect to linearity for both incubation time and microsomal/plasma protein concentration (data not shown). […] After 1 min preincubation in a 37 °C water bath, 1 µl of human or rat liver microsomes (final concentration 0.1 mg microsomal protein/ml), or 1 µl of human or rat plasma (final concentration 0.385 mg plasma protein/ml for human plasma and 0.300 mg plasma protein/ml for rat plasma) was added to initiate the reaction. The total incubation mixture was 200 µl. Control incubations were carried out by replacing liver microsomes or plasma with buffer. The reaction was terminated after 1 min incubation (human samples) or 2 min incubation (rat samples) by adding 200 µl ice-cold ACN. Subsequently, samples were centrifuged at 16000 g (4℃) for 5 min, and supernatants were further diluted (30 × for liver sample and 40 × for plasma sample) in a mixture of ACN and 50 mM Tris–HCl (pH 7.4) (ratio 1:1, v/v) before analysis by LC–MS/MS for quantification of metabolite formation.
(§4) The chromatographic separations were conducted on a Kinetex® 1.7 µm Phenyl-Hexyl 100 Å LC column (100 × 2.1 mm). The injection volume was 1 µl at a flow rate of 0.3 ml/min. The temperature of the column was kept at 40℃. The mobile phase A consisted of ultrapure water with 0.1% (v/v) formic acid, and mobile phase B consisted of acetonitrile (ACN) with 0.1% (v/v) formic acid. […] The instrument was used in positive mode with multiple reaction monitoring (MRM). The optimized acquisition parameters for DZN, DZO and the metabolite IMHP are listed in Supplementary data I.
(§5) The calculation was done using GraphPad Prism 5 for Windows, version 5.04 (GraphPad software, San Diego California USA).

[5] = Unbound fraction in the in vitro medium by rapid equilibrium dialysis (RED); assay type: in vitro ADME
Experimental: To assess whether this assumption is reasonable, the fuDZOin vitro was determined. This was done using rapid equilibrium dialysis (RED) performed in line with the manufacturer’s protocol (Thermo Fisher Scientific [2012]). […] The whole device was then incubated for 5 h at 37℃ on a shaker at 250 rmp to reach equilibrium. Then 50 µl of post-incubation sample were separately collected from the sample and buffer chambers into the corresponding Eppendorf tubes. After this 50 µl of PBS buffer was added to the sample taken from the sample chamber and 50 µl of in vitro medium was added to the sample taken from buffer chamber and subsequently 300 µl ice-cold 90% acetonitrile (ACN/water, v/v) were added to both samples to precipitate the protein. All samples were put on ice for 30 min, followed by centrifugation for 30 min at 15,000g. The supernatants were collected for LC–MS/MS analysis of the amount of DZO.

PON1 [6] = biological target: T4, PON1 (Rattus norvegicus, UniProt P55159); test: in vitro; assay type: in vitro ADME; parameters: 1 µl of human or rat liver microsomes (final concentration 0.1 mg microsomal protein/ml); tissue Corning; host or cells: rat liver microsomes (Sprague–Dawley, male); conditions: for Km: pH 7.4
T4 sequence (P55159 whole entry): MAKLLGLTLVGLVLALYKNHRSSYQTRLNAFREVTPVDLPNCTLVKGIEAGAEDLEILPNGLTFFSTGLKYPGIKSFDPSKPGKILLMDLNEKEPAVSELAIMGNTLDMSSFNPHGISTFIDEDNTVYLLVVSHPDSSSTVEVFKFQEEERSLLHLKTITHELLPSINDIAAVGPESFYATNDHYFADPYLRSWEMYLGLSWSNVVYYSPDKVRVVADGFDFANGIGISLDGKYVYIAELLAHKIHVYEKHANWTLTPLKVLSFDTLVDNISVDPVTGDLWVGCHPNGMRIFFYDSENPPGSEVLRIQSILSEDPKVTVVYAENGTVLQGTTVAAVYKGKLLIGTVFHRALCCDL
Experimental: as §3, §4, §5

PON1 [7] = biological target: T4, PON1; conditions: ref Makhaeva et al. 2009; cited from earlier work

CCOP(=O)(O)OCC [DEP, diethylphosphate]
Ke, elimination into the urine [1]: 0.29 h⁻¹ | Ke, elimination into the urine [2]: 12 h⁻¹

CCOP(O)(=S)OCC [DETP, diethylthiophosphate]
Ke, elimination into the urine [1]: 0.29 h⁻¹ | Ke, elimination into the urine [2]: 12 h⁻¹

CCOP(=O)(OCC)Oc1cc(C)nc(C(C)C)n1 [DZO, Diazoxon]
toxic equivalency factor (TEF) (rat RBC AChE): 1.0 | toxic equivalency factor (TEF) ([3]; human, IC50 DZO/IC50 DZN, TEF of DZO set at 1.0): 1.0 | pIC50 ([3]; rhAChE, 15 min incubation at 37℃, read-out: IC50 for inhibition of AChE activity): 7.36 | Vmax DZO to IMHP, plasma (PON1 [4]): 124.000 nmol/min/mg plasma protein | Vmax DZO to IMHP, liver (PON1 [4]; human liver microsomes): 53.490 nmol/min/mg microsomal protein | Km (PON1 [4]; human liver microsomes): 557 µM | Km (PON1 [4]; human plasma): 701 µM | recovery at 5 h, 0.05 µM ([5]; in vitro medium in a RED insert device, read-out: recovery rate of post-dialysis in the in vitro medium): 74% | fraction unbound at 5 h, 0.05 µM ([5]; in vitro medium with 0.1 mg/ml BSA, read-out: unbound fraction in the in vitro medium (fu in vitro)): 0.96 | Km (PON1 [6]; rat liver microsomes): 668 µM | Km (PON1 [6]; rat plasma): 536 µM | Vmax DZO to IMHP, liver (PON1 [6]; rat liver microsomes): 691.100 nmol/min/mg microsomal protein | Vmax DZO to IMHP, plasma (PON1 [6]; rat plasma): 431.400 nmol/min/mg plasma protein | PON1-mediated conversion of DZO faster in rat liver than in human liver (PON1 [6]; rat versus human liver): 10.7 fold | higher Vmax of PON1-mediated conversion in rat liver (PON1 [6]; rat versus human liver): 12.9 fold | PON1-mediated conversion of DZO faster in rat plasma than in human plasma (PON1 [6]; rat versus human plasma): 4.5 fold | higher Vmax of PON1-mediated conversion in rat plasma (PON1 [6]; rat versus human plasma): 3.5 fold

Cc1cc(=O)nc(C(C)C)[nH]1 [IMHP, 2-isopropyl-4-methyl-6-hydroxypyrimidine]
Ke, elimination into the urine [1]: 0.29 h⁻¹ | Ke, elimination into the urine [2]: 12 h⁻¹

CCOP(=O)(OCC)Oc1ccc([N+](=O)[O-])cc1 [paraoxon]
faster PON1-mediated hydrolysis by rat than human plasma samples (PON1 [7]): approximately 4 fold
